For assay [1], the target named is T1, PfENT1 mutant W53A (Plasmodium falciparum, UniProt Q8IDM6, W53A).
T1 construct: 10xHis (N); made in house; host or cells: Sf9 insect cells (baculovirus)
In words: ITC binding to PfENT1 mutant W53A. The method, then:
(§1) For the in vitro binding assay, Sf9 cells were solubilized in lysis buffer containing 2% (w/v) n-dodecyl-β-D-maltopyranoside (DDM, Anatrace) and protease inhibitor cocktail (0.8 μM aprotinin, 2 μM pepstatin, and 5 μg/ml leupeptin) at 4 °C for 2 h. The soluble supernatant was collected via centrifugation and incubated with Ni-NTA resin (QIAGEN) at 4 °C for 1 h. The resin was washed and eluted using lysis buffer containing 0.05% (w/v) DDM and 30 mM/300 mM imidazole. The protein was further purified by size-exclusion chromatography (Superdex 200 Increase 10/300; GE Healthcare) in buffer containing 25 mM MES (pH 6.0), 150 mM NaCl, and 0.05% (w/v) DDM. The peak fractions were pooled and concentrated to 10~50 μM for the nucleoside-binding assay.
(§2) The binding affinity between wild-type and mutant PfENT1 with nucleosides and GSK4 was measured using a Micro-Cal ITC200 (Malvern). All proteins were prepared in 25 mM MES (pH 6.0), 150 mM NaCl, and 0.05% (w/v) DDM. Nucleosides (5~10 mM) and GSK4 (100-200 μM) dissolved in the same buffer were titrated against 20–50 μM PfENT1 proteins at 25 °C. PEAQ-ITC analysis software (MicroCal) was employed to analyze the data. All titrations were repeated three times.

The target in assay [2] is T2, PfENT1 mutant D287A (Plasmodium falciparum, UniProt Q8IDM6, D287A).
T2 construct: 10xHis (N); made in house; host or cells: Sf9 insect cells (baculovirus)
T2 sequence (Q8IDM6 1-422 D287A): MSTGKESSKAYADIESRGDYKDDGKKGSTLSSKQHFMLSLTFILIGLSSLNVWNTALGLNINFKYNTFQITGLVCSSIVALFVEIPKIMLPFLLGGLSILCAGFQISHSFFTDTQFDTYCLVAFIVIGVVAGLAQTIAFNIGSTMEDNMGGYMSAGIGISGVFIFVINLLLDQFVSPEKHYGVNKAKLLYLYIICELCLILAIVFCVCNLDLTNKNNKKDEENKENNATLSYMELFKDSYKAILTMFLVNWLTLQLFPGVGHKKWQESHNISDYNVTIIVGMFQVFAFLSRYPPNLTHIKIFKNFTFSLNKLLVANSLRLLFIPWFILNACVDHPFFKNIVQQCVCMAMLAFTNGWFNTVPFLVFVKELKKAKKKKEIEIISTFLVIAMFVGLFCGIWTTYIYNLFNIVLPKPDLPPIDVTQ
In words: ITC binding to PfENT1 mutant D287A. The following applies: Fig. 3c. The method, then:
as §1, §2

In assay [3] the target is T3, PfENT1 mutant R291A (Plasmodium falciparum, UniProt Q8IDM6, R291A).
T3 construct: 10xHis (N); made in house; host or cells: Sf9 insect cells (baculovirus)
T3 sequence (Q8IDM6 whole entry R291A): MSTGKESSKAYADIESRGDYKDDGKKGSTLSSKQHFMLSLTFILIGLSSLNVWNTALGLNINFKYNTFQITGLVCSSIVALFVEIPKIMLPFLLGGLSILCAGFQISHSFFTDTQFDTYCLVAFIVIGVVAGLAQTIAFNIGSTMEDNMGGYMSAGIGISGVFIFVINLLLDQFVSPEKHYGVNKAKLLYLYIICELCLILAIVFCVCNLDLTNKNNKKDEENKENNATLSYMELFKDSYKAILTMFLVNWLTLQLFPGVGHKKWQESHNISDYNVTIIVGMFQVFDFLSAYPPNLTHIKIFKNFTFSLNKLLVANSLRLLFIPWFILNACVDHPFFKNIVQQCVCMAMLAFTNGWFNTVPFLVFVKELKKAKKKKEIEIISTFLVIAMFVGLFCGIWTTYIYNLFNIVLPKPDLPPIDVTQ
In words: ITC binding to PfENT1 mutant R291A. As to the method:
as §1, §2

The target in assay [4] is T4, PfENT1 (Plasmodium falciparum, UniProt Q8IDM6).
T4 construct: expressed in transfected cells; host or cells: S. cerevisiae BY4741, FUI1 deleted, PfENT1 knock-in under the TEF1 promoter
T4 sequence (Q8IDM6 whole entry): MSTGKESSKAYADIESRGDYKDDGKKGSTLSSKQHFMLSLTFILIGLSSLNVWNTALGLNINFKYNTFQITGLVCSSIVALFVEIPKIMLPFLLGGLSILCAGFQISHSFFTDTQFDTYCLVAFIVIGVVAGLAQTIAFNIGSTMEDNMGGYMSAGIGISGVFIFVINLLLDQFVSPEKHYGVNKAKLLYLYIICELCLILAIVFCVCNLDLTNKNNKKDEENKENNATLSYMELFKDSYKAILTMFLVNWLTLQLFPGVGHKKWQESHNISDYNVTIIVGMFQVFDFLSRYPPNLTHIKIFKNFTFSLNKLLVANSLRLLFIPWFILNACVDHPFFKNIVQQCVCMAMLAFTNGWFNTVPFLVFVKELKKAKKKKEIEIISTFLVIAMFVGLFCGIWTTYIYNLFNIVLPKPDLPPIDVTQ
The experiment in a line: cell-based. The format is cell-based. The following applies: for uptake of inosine: time course, PfENT1 knock-in yeast. As to the method: The S. cerevisiae strain (ATCC, #201388) BY4741 (MATa his3Δ1 leu2Δ0 met15Δ0 ura3Δ0) was used as the starting yeast strain. Yeast strains were cultured in YPD medium (20 g/L peptone, 10 g/L yeast extract, and 20 g/L dextrose). The antibiotic G418 was supplemented at a concentration of 250 μg/mL to select strains carrying the KanMX marker. E. coli DH5α was used for subcloning.
Codon-optimized PfENT1 (for expression in yeast) was synthesized by Sangon Biotech. The carboxyl terminus of PfENT1 was HA-tagged through PCR. The TEF1p promoter and PGK1t terminator were amplified from BY4741 genomic DNA. Overlap PCR was applied to generate the gene overexpression cassette of PfENT1 (TEF1p promoter-PfENT1-PGK1t terminator). The two 600-bp homologous arms corresponding to the upstream and downstream regions of the FUI1 gene were amplified from BY4741 genomic DNA. The gene cassette of the ‘TEF1p promoter-PfENT1-PGK1t terminator’ together with the two homologous arms was cloned into the PUC19 plasmid through Gibson assembly, generating the final plasmid PUC19: PfENT1. PfENT1 mutations were generated using point mutation and verified by Sanger sequencing. The spacer targeting the FUI1 gene (5ʹ-[…]-3ʹ) was cloned into the pCas-BsaI plasmid to generate the pCas-FUI1 plasmid as described previously.
To obtain fui1Δ and PfENT1 (or its mutations) overexpression in the S. cerevisiae strain, 1 μg pCas-FUI1 plasmid and 15 μg PUC19:PfENT1 were transformed into yeast using the LiAc/ssDNA/PEG method. Then, the strains were plated on a YPD plate supplemented with G418. Clones were screened using PCR and finally verified through Sanger sequencing.
Cells were grown overnight in YPD medium to mid-log phase and harvested by centrifugation at 3000 × g for 5 min. Cells were washed three times in 2% glucose. The yeast pellets were resuspended in uptake assay buffer (25 mM Tris-HCl 8.0,150 mM NaCl, 2% glucose) to a final concentration of 2 × 10^8 cells mL^–1. The uptake assay was initiated by combining 100 μL of prewarmed (30 °C) cells and 100 μL uptake assay buffer mixture: 25 mM Tris-HCl 8.0, 150 mM NaCl, 2% glucose, 200 nM [^3H] Inosine ([8-^3H] inosine; 20 Ci mmol^–1, American Radiolabeled Chemicals). Cells were removed onto a membrane filter at the appropriate times to generate the time course. After washing by vacuum filtration with 2 ml ice-cold 2% glucose, the radioactivity retained on the filter was incubated with 1 mL of ULTIMA GOLD scintillation fluid (Perkin Elmer, 77-15311). Counts were measured using a liquid scintillation analyzer (Perkin Elmer, Tri-Carb 5110TR).
For competition assays, the indicated nucleosides and nucleobase were added into the external uptake assay buffer (25 mM Tris-HCl 8.0, 150 mM NaCl, and 2% glucose) to a final concentration of 5 mM, and the transport reaction was stopped at 30 min. The reading of the competition assays was normalized against the one without a competitor, which had the uptake of radiolabeled inosine set as 100%. All uptake assays were performed at 30 °C and repeated three times. Error bars represent the s.d. The final result was analyzed in the GraphPad Prism 8 software ([…]).

Each structure is given as a SMILES string. Values joined by “and” are separate entries in the source; they are usually repeats but may differ in a detail not shown here. Equal values may be shown once.

T1 sequence (Q8IDM6 whole entry W53A): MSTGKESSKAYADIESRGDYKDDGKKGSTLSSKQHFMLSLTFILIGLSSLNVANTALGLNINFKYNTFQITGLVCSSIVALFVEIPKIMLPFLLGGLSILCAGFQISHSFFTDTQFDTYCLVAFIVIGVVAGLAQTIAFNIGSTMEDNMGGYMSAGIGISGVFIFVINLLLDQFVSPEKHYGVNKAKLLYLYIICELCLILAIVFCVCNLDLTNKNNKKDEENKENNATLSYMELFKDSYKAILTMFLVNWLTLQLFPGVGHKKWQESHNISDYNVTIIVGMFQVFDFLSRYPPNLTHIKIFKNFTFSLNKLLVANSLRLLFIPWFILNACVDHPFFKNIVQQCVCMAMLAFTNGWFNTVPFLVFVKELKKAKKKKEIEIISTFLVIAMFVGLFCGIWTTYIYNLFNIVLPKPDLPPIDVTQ

`OC[C@H]1O[C@@H](n2cnc3c(O)ncnc32)[C@H](O)[C@@H]1O` [Inosine, inosine]: the Kd (commonly the constant that tells how readily two partners part at equilibrium) in assay [1] (Kd, Mean and Mean ± SD, source data Figure 3c, construct W53A) is 1830 µM; in assay [1] (Kd, N=3 (individual experiments), source data Figure 3c, construct W53A), 1900 µM and 1940 µM and 1650 µM; in assay [1] (binding affinity (Kd), ITC, Fig. 3c, mutant W53A, mean ± SD (n = 3)) it was 1830 ± 157 µM; in assay [3] (Kd, Mean and Mean ± SD, source data Figure 3c, construct R291A), 46.7 µM; in assay [3] (Kd, N=3 (individual experiments), source data Figure 3c, construct R291A), 53 µM and 56 µM and 31 µM; in assay [3] (binding affinity (Kd), ITC, Fig. 3c, mutant R291A, mean ± SD (n = 3)) it was 46.7 ± 13.6 µM. Besides, in assay [1] (inosine binding, W53A versus wild type), the “weaker binding than the wild type” value is 30 fold. For the same compound, the “binding affinity (Kd)” value is listed as “completely lost inosine binding” in assay [2] and “maintains inosine binding” in assay [3] (ITC, Fig. 3c, mutant R291A, mean ± SD (n = 3)). For the same compound, the remaining activity at 5000 µM in assay [4] (0.5 h, read-out: Uptake of [3H]-inosine (Percentage of PfENT1 WT), competition by nonradioactive nucleoside/nucleobase 5 mM, 30 min, 30 °C, uptake without competitor set as 100%, Fig. 1c) turned out to be 11%. The “Uptake of [3H]-inosine (Percentage of PfENT1 WT)” value in assay [4] (competition by nonradioactive nucleoside/nucleobase 5 mM, 30 min, 30 °C, uptake without competitor set as 100%, Fig. 1c) is given as “abolished”. The uptake of inosine in assay [4] (time 1 (min), 3 independent experiments) was 0.8242 fmol per million cells and 1.048 fmol per million cells and 1.269 fmol per million cells; in assay [4] (time 5 (min)) it was 1.492 fmol per million cells and 1.522 fmol per million cells and 1.615 fmol per million cells; in assay [4] (time 10 (min)), 2.864 fmol per million cells and 2.823 fmol per million cells and 2.628 fmol per million cells; in assay [4] (time 20 (min)) it was 4.048 fmol per million cells and 4.1747 fmol per million cells and 4.441 fmol per million cells; in assay [4] (time 30 (min)), 5.946 fmol per million cells and 6.16 fmol per million cells and 6.198 fmol per million cells; in assay [4] (time 45 (min)) it was 10.3307 fmol per million cells and 9.87 fmol per million cells and 9.474 fmol per million cells. For the same compound, in assay [4] (time 60 (min)), the uptake of inosine was 11.051 fmol per million cells and 11.1951 fmol per million cells and 11.2042 fmol per million cells.

The values are drawn from paper PMC10050424, “Structural basis of the substrate recognition and inhibition mechanism of Plasmodium falciparum nucleoside transporter PfENT1” (Nature Communications, 2023).
